Measured values published in US10383905B2, “Extract of Cynara ssp. and uses thereof” (ABOCA S.P.A. SOCIETA' AGRICOLA, priority 2013, dated 2019).

Tests used:
[1] = test system: MSTO211H and NCI-H2052; assay: ATPlite vitality assay, extract in association with pemetrexed, MPM lines; type: cell-based, human; conditions: MPM cells, 72 h
Procedure: Cell lines MSTO211H and NCI-H2052 were used to evaluate the effects of the association of extract of Cynara scolymus+anti-tumour drug.
(§1) The assay shown in FIG. 10 was performed using ATPlite™ assay (Perkin Elmer) in accordance with the producer's instructions.
(§2) A solution of water for injectable solutions and ethanol at a concentration of 1:1 was used in the same volumes used for the treatments.
(§3) pemetrexed (Alimta, Lilly) diluted in accordance with the producer's instructions.
(§4) The concentrations of the assayed compound are plotted on the abscissa, whereas the cell vitality expressed in percentage is plotted on the ordinate.

[2] = test system: untransformed HMC cells; assay: ATPlite vitality assay, extract in association with pemetrexed, HMC; type: cell-based, human; conditions: non-tumour HMC cells
Procedure: as §1, §2, §3, §4

[3] = test system: STAT3; assay: Glutathionylation of STAT3; type: cell-based; conditions: 12 microM and 25 μM
Procedure: STAT3 was immunoprecipitated by incubating the protein cell extract overnight with an anti-STAT3 antibody. The proteins obtained were separated by means of SDS-PAGE in non-reducing conditions and were transferred on PVDF membrane. The glutathionylated STAT3 was recognised using an anti-GSH antibody.

[4] = test system: GSH; assay: Intracellular analyses of GSH; type: cell-based; conditions: 12.5, 25, 50 μM
Procedure: The intracellular concentration of GSH was evaluated by means of a colorimetric method. The cell extract, deproteinised by means of 10% trichloroacetic acid, was treated with dithio nitrobenzene (DTNB), and the quantity of TNB, which is released following the reaction with GSH, was evaluated by analysing the absorbance at 412 nm.

[5] = test system: confluent prostatic adenocarcinoma cell line DU-145; assay: WST-1 cell vitality assay, confluent DU-145; type: cell-based, human
Procedure: (§5) Cytotoxicity was assayed using the WST assay (WSTs=water soluble tetrazolium salts), and utilises the ability of mitochondrial dehydrogenases to separate the tetrazole ring from the yellow-coloured WST molecule (tetrazolium salt) to give an orange formazan salt. The amount of formazan produced following the treatment of the cells with the substances being tested is measured using spectrophotometry and is proportional to the number of living cells. WST-1 and in particular WST-8 (2-(2-methoxy-4-nitrophenyl)-3-(4-nitrophenyl)-5-(2,4-disulfophenyl)-2H-tetrazolium) are advantageous with respect to MTT because they reduce outside the cells, in combination with PMS as electron mediator, to produce water-soluble formazan.
6.2 WST-1 assay on cell line DU145 at 24 and 48 hours with 0-100-200-300-400-500-600 μg/ml of extract of Cynara scolymus (cynaropicrin=1.361%), which inhibits, in a time-dependent and dose-dependent manner, the vitality of the DU-145 cells.
6.3 WST-1 assay on cell line DU145 at 24 and 48 hours with cynaropicrin 0-10-20-30-40-50-60 μM inhibits, in a dose-dependent and time-dependent manner, the vitality of DU-145 cells.

[6] = target: T1, STAT3 (Homo sapiens, UniProt P40763); assay: Western Blot of STAT3 phosphorylation in KARPAS cells; type: cell-based; set-up: The cell line DU145 expresses pStat3 in a constitutive manner; endogenous in cells; host or cells: DU-145 (human prostate carcinoma, ATCC HTB-81); conditions: read-out: EC50 inhibition of the phosphorylation of STAT3
Procedure: (§6) The cells were lysed in ice for 30 min in lysis buffer NP40 (50 mM Tris-HCl pH 7.4, 150 mM NaCl, 1% NP-40, 1 mM EGTA, 1 mM EDTA) complemented with inhibitors of protease and phosphatase (5 mM PMSF, 3 mM NaF, 1 mM DTT, 1 mM NaVO4). Equal amounts of total extracts of protein (30 μg) were broken down by means of denaturing electrophoresis (SDS-PAGE) in 8% polyacrylamide gel and transferred for 2 hours on nitrocellulose membrane. The membranes were blocked with a 5% solution of milk dissolved in TBS-Tween_20 0.05% for 1 hour and incubated with the specific primary antibodies. The following primary antibodies were used: anti-beta actin (A-2228, SIGMA), anti-pSTAT3 (Tyr-705) (sc8059, Santa Cruz) and anti-STAT3 (sc7179, Santa Cruz). The secondary antibodies were peroxidase-conjugated (Santa Cruz), and ECL reagents (Amersham, GE Healthcare. Piscataway, N.J., USA) were used for the chemiluminescence.
(§7) 2. The Extract of Cynara scolymus and Cynaropicrin Inhibit the Activation of STAT3 in DU-145 Cells and in KARPAS Cells:
(§8) 200 μg/ml of extract that contains 0.181% of cynaropricrin contain 1.2 μM of cynaropricrin.

[7] = test system: STAT3; assay: STAT3 phosphorylation after pre-treatment with glutathione ethylene ester; type: cell-based
[8] = target: T1, STAT3; assay: EMSA of STAT3 binding to DNA in KARPAS cells; type: cell-based; set-up: endogenous in cells; conditions: read-out: EC50 inhibition of the ability of STAT3 to bind to DNA
[9] = target: T1, STAT3; assay: EMSA of STAT3 binding to DNA in DU-145 cells; type: cell-based; set-up: The cell line DU145 expresses pStat3 in a constitutive manner; endogenous in cells; host or cells: DU-145 (human prostate carcinoma, ATCC HTB-81); conditions: read-out: EC50 inhibition of the ability of STAT3 to bind to DNA
[10] = target: T1, STAT3; assay: Western Blot of STAT3 phosphorylation in DU-145 cells; type: cell-based; set-up: The cell line DU145 expresses pStat3 in a constitutive manner; endogenous in cells; host or cells: DU-145 (human prostate carcinoma, ATCC HTB-81); conditions: read-out: EC50 inhibition of the phosphorylation of STAT3
Procedure: as §6, §7, §8

[11] = test system: human prostate tumour cell line DU145; assay: WST-1 vitality assay in association with chemotherapeutic agents; type: cell-based
Procedure: as §5
The assays were carried out in parallel with variable doses of cynaropicrin in place of the extract to compare the efficacy of the extract and that of cynaropicrin.

T1 sequence (P40763 whole entry): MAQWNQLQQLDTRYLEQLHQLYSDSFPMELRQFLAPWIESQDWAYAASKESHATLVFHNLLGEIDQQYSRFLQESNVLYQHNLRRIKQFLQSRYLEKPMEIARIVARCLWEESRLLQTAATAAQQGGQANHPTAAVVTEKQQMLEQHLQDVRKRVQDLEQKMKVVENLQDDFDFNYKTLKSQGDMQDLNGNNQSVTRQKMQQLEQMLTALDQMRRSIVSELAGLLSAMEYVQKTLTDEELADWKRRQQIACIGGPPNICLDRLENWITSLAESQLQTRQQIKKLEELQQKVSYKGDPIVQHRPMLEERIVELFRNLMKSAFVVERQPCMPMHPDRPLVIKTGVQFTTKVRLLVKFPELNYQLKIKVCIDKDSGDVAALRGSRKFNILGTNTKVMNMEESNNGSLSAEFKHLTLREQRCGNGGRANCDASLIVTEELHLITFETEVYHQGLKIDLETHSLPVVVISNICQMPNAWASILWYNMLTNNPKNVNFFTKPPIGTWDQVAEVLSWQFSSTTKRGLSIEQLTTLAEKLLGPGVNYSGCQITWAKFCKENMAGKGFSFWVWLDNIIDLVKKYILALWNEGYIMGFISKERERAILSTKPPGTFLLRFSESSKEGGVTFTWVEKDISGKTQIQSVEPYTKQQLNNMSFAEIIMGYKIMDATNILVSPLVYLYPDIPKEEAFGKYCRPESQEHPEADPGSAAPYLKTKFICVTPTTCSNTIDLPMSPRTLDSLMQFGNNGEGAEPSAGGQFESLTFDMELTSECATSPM

Structure (SMILES): Nc1nc2[nH]cc(CCc3ccc(C(=O)N[C@@H](CCC(=O)O)C(=O)O)cc3)c2c(=O)[nH]1 [PMTX, pemetrexed]
- cell vitality, pemetrexed alone [1]: cytotoxic for the MPM cells
- cell vitality, pemetrexed alone [2]: highly toxic for the non-tumour cells

Structure (SMILES): C=C(CO)C(=O)O[C@H]1CC(=C)[C@@H]2C[C@H](O)C(=C)[C@@H]2[C@H]2OC(=O)C(=C)[C@@H]21 [cynaropicrin]
- glutathionylation of STAT3 [3]: determines the glutathionylation of STAT3
- intracellular concentration of GSH [4]: time-dependent and dose-dependent reduction of the intracellular concentration of GSH
- reduction of vitality ([5]; confluent DU-145, 50 μM for 48 hours): approximately 90%
- cell vitality ([5]; confluent DU-145, cynaropicrin 0-70 μM, 24 or 48 hours): inhibits cell vitality in a time-dependent and dose-dependent manner
- EC50 [6]: 25 µM
- effect of restoration of GSH on inhibition of STAT3 phosphorylation [7]: reverses the ability of cynaropicrin to inhibit the phosphorylation of STAT3
- EC50 [8]: 25 µM
- EC50 [9]: 25 µM
- EC50 [10]: 25 µM
- molarity of cynaropicrin needed to reduce cell vitality below 20%, relative to that present in the artichoke extract ([11]; DU145, with cisplatinum 15 μg/ml): forty times greater
- molarity of cynaropicrin needed to reduce cell vitality below 20%, relative to that present in the artichoke extract ([11]; DU145, with doxorubicin 2 μg/ml): approximately twenty-five times greater
